The values that follow are results of earlier work, collected in US20060216365A1, “Aromatherapeutic environmental system” (priority 2000, published 2006).

For data set [1] the following is noted: mice, literature (Hikino et al 1980).
The conditions of data set [2]: mice, literature (Hikino et al 1980). The source holds these as a separate data set.
Data set [3] concerns monoamine oxidase. To be noted: literature (Truitt 1967).

Take `CC(=O)O[C@H]1C[C@@H]2C[C@H]3[C@@H]([C@H](OC(C)=O)C[C@H]3C)[C@]1(C)OC2(C)C` [Kessyl glycol diacetate]: the “inhibition of stress-induced ulcer formation” value in data set [1] is “no inhibitory action”. Besides, the “prolongation of hexobarbital-induced sleep / enhancement of hexobarbital anesthesis” value in data set [2] is reported as “active principles”.
For the compound `C=CCc1cc(OC)c2c(c1)OCO2` [myristicin], the “monoamine oxidase inhibiting activity” value in data set [3] is on record as “mild degree”.
With Kessyl glycol 2-acetate, in data set [2], the “prolongation of hexobarbital-induced sleep / enhancement of hexobarbital anesthesis” value is “active principles”.
Take Kessyl glycol 8-acetate: the “prolongation of hexobarbital-induced sleep / enhancement of hexobarbital anesthesis” value in data set [2] is “active principles”.
